Measured values published in patent US6391304B1, “Peptides derived from the ENV gene of the feline immunodeficiency virus and their applications” (Centre National de la Recherche Scientifique, priority 1997, dated 2002).
“And” between values parts separate entries of the source, which are not always exact repeats. Identical values can stand only once. “Also recorded” adds a separate entry of the source.

What was measured:
[1] = test system: immobilized peptide (SU2, SU5, TM2 or TM3-19); experiment: ELISA anti-peptide titre during the immunization of cats; assay type: in vivo; conditions: individual cats immunized with KLH-coupled peptide; absorbance at 405 nm greater than 0.1
Experimental: (§1) Groups of four cats 4½ months old are immunized subcutaneously with 120 μg of FIV peptide (approximately 250 μg of peptide coupled to KLH (keyhole limpet haemocyanin)), emulsified in complete Freund's adjuvant.
(§2) Four repeat immunizations are administered subcutaneously in an incomplete Freund's adjuvant, generally at intervals of 2-3 weeks, although the interval between the last 2 […] was 7 weeks.
(§3) The production on of antibodies is evaluated before the test by means of an ELISA using an immobilized peptide (SU2, SU5, TM2 or TM3-19) and immunoprecipitation. After the test, the seroconversion is monitored by an ELISA using immobilized envelope peptides and a recombinant FTV capsid protein.
(§4) The ELISA with the immobilized envelope peptides corresponding to the immunogenic domains SU2 and TM2 and with the immobilized recombinant p25 protein (FIV capsid protein) is carried out as described in Avraméas A. et al. (Res. Virol., 1993, 144, 209-218).
(§5) Microplates (Immunolon II, Dynatech) are coated with 0.5 μg/well for the peptides and with 0.1 μg/well for the p25 protein.
(§6) The tests are carried out in duplicate and the results are expressed as average values.
The anti-peptide titres before the test are expressed as the logarithm of the inverse of the last dilution of serum which gives an absorbance (at 405 nm) of greater than 0.1.

[2] = test system: envelope glycoproteins of the Petaluma strain; experiment: Immunoprecipitation of envelope glycoproteins by sera (metabolically labelled FL-4 cells); assay type: in vivo, FIV; conditions: lysates of chronically infected FL-4 cells; groups of four cats
Excerpt: The sera collected on the day of the test (at a dilution of 1/40) are used to immunoprecipitate the envelope glycoproteins derived from the metabolically labelled FL-4 cells and feline mononuclear cells (PBM cells) infected with the FIV Wo strain, as described in G. Pancino et al. (Virology, 1995, 206, 796-806).
The recognition of the envelope glycoproteins is estimated by immunoprecipitation of the biosynthetically labelled envelope glycoprotein with sera collected on the day of the test, as summarized in Table I.

FIV Petaluma strain = experiment: Neutralization of infection of CrFK cells by sera of immunized cats; assay type: cell-based; conditions: CrFK cell line
Experimental: The detection of antibodies neutralizing the infection of the CrFKs with the FIV Petaluma strain is carried out as described previously (Richardson J. et al., J. Gen. Virol., 1996, 77, 759-771).
To evaluate the function of the antibodies, the feline sera directed against the SU2 peptide are tested for their neutralizing value with respect to the infection of CrFK cells with the FIV Petaluma strain.

SU2 envelope peptide = experiment: Seroconversion ELISA after the virulence test, SU2 peptide; assay type: in vivo, cats; conditions: ELISA, seral dilution 1/25; individual cats
Experimental: (§7) The cats are subjected to a virulence test, one week after the final immunization, by means of an intraperitoneal inoculation of 10 CID50 of FIV Wo isolate, one CID50 corresponding to the dose capable of infecting 50% of the cats.
as §3, §4, §5, §6
(§8) After the test, the seroconversion against the envelope peptides and the p25 protein is evaluated at serum dilutions of 1/25 and 1/100, respectively.
(§9) The absorbance values (at 405 nm) are corrected by subtraction of the absorbance values obtained by binding with an immobilized control peptide.
(§10) The tests are normalized with reference to the binding of a mixture of serum from cats infected with FIV with a peptide representing the immunodominant domain of the FIV transmembrane glycoprotein (TM2) (Avraméas A. et al., Res. Virol., 1993, 144, 209-218).

TM2 envelope peptide = experiment: Seroconversion ELISA after the virulence test, TM2 peptide; assay type: in vivo, cats
Experimental: as §7, §3, §4, §5, §6, §8, §9, §10

[3] = test system: p25 recombinant FIV capsid protein; experiment: Seroconversion ELISA after the virulence test, p25; assay type: in vivo, cats; conditions: ELISA, seral dilution 1/100; individual cats
Experimental: as §7, §3, §4, §5, §6, §8, §9, §10

CD4+ T lymphocytes = experiment: Counting of circulating CD4+ T lymphocytes by flow cytometry; assay type: in vivo, cats; conditions: acute infection with FIV Wo, FIG. 2
Experimental: Counting of the CD4^+ T lymphocytes is carried out at regular intervals before the test, on the day of the test and at regular intervals during the acute infection.
The CD4^+ T lymphocytes are counted by flow cytometry, using monoclonal antibodies (Clinisciences).
To evaluate the effect of the immunization on the pathology associated with a primary infection, circulating CD4^+ lymphocytes are counted before and after the test with the FIV Wo strain.

FIV Wo isolate = experiment: Plasmatic viral load by competitive RT-PCR after the virulence test; assay type: in vivo, cats; conditions: after test with 10 CID50 of Wo isolate, relative to control cats, FIG. 3
Experimental: as §1, §2, §7
The plasma is filtered (0.45 μm) and the RNA not associated with cells is extracted directly from the filtered plasma using the Viral RNA kit (Qiagene) and eluted in 50 μl of water according to the manufacturer's instructions, and the RNA is then divided into aliquots and stored at −80° C.
A conserved region of the FIV gag gene is selected as a target sequence for the reverse transcription of the competitive RNA and the overlapping PCR amplification.
For the synthesis of the cDNA, 2.5 μl of viral RNA are mixed with 2.5 μl containing different numbers of copies of competitive RNA; typically, the various samples of competitive RNA are prepared using 5 semi-logarithmic dilutions, straddling the number of copies estimated in the biological sample.
The RNA is denatured at 65° C. for 5 minutes and immediately placed on ice. The reagents for the reverse transcription (15 μl) are added.
The final reaction mixtures contain 0.3 U/ml of random hexanucleotides (sequences of 6 randomly aligned nucleotides which make it possible theoretically to amplify any RNA fragment) (Pharmcia), 0.5 mM of dNTP, 10 mM of DTT, 1× of commercial buffer (Gibco BRL) and 100 U of Superscript II (Glbco BRL), in a volume of 20 μl.
The reactions are first carried out at 25° C. for 10 minutes to promote the hybridization of the primers, and then at 42° C. for 50 minutes. The reverse transcriptase is inactivated by incubation at 95° C. for 5 minutes.
The highly conserved sequences are selected as primers. The complementary DNA is amplified by overlapping PCR, using:
For the first amplification, the PCR reagents (80 μl) are added as a mixture with 20 μl of cDNA.
The DNA is denatured at 94° C. for 3 minutes, subjected to 28 cycles of amplification (94° C. 30 s/55° C. 30 s/72° C. 30 s) and to an elongation at 72° C. for 7 minutes.
For the overlapping amplification, 2 μl of the product of the first amplification is transferred into 98 μl of reaction mixture containing 200 μM of dNTP, 1.5 mM of MgCl2, 0.5 μM of each internal primer, 1× of commercial buffer (Gibco BRL) and 0.25 U of Taq polymerase (Gibco BRL).
The DNA is denatured at 94° C. for 3 minutes, subjected to 28 cycles of amplification (94° C. 30 s/52° C. 30 s/72° C. 30 s) and to an elongation at 72° C. for 7 minutes.
The amplification products (10 μl ) are subjected to electrophoresis on 2.75% agarose gel.
Digital images of the gels stained with ethidium bromide are obtained using the Appligene Imager and the densitometry analyses are carried out with the Image NIH software. The density of the competitive product is adjusted as a function of the difference between the length of the native sequence and that of the competitive sequence.
The logarithm of the ratio:density or competitive product/density of the native product, is plotted as a function of the logarithm of the number of copies of competitive RNA added to each reaction.
The best adjustment is determined by the least-squares method and the number of copies of native RNA corresponds to the intersection of the axis of the Xs (Piatak M. Jr. et al., Biotechniques, 1993, 14, 70-80).
The cumulative area under the curve (Dawson J., Drug Information J., 1994, 28, 723-732) is calculated from graphs illustrating the ratio: copies of viral RNA/ml of plasma/time, and compared with the Mann-Whitney test.

[4] = ELISA, seral dilution 1/25, individual cats

SU5: peptide of the SU5 domain of the FIV surface envelope glycoprotein, SEQ ID NO: 3, used as immunogen (QVVKQPDYLVVPGEVMEYKPRR)
Anti-peptide titre, 1st injection [1]: 5.01 logarithm of the inverse of the last dilution of serum and 5.31 logarithm of the inverse of the last dilution of serum and 4.71 logarithm of the inverse of the last dilution of serum and >5.61 logarithm of the inverse of the last dilution of serum | Anti-peptide titre, 2nd injection [1]: 5.31 logarithm of the inverse of the last dilution of serum (3×) and 5.01 logarithm of the inverse of the last dilution of serum | Anti-peptide titre, Day of the test [1]: 4.71 logarithm of the inverse of the last dilution of serum and 5.01 logarithm of the inverse of the last dilution of serum (3×) | cats whose sera immunoprecipitate the envelope glycoproteins of the Petaluma strain [2]: all the cats | neutralizing antibodies in sera of immunized cats (FIV Petaluma strain): do not neutralize | Binding of the sera to SU2, 3 weeks after the virulence test (SU2 envelope peptide): 0 optical density | Binding of the sera to SU2, 4 weeks after the virulence test (SU2 envelope peptide): 1.9 optical density and 0.5 optical density and 0 optical density (2×) | Binding of the sera to SU2, 5 weeks after the virulence test (SU2 envelope peptide): 2.4 optical density and 0.7 optical density and 0.1 optical density and 0 optical density | Binding of the sera to TM2, 3 weeks after the virulence test (TM2 envelope peptide; [4]): 2.3 optical density and 0 optical density (2×) and 0.1 optical density | Binding of the sera to TM2, 4 weeks after the virulence test (TM2 envelope peptide; [4]): 2.9 optical density and 2.8 optical density and 2.4 optical density and 0 optical density | Binding of the sera to TM2, 5 weeks after the virulence test (TM2 envelope peptide; [4]): 3.0 optical density and 3.1 optical density and 2.8 optical density and 0 optical density | response against the TM2 peptide (TM2 envelope peptide; at 4 weeks after the test): developed a large response | Binding of the sera to p25, 3 weeks after the virulence test [3]: 0.1 optical density and 0 optical density (3×) | Binding of the sera to p25, 4 weeks after the virulence test [3]: 2.7 optical density and 1.0 optical density and 0.2 optical density and 0 optical density | Binding of the sera to p25, 5 weeks after the virulence test [3]: 2.9 optical density and 2.2 optical density and 0.8 optical density and 0 optical density | number of CD4+ lymphocytes after the infection (CD4+ T lymphocytes): gradual reduction | course of the primary infection (viral RNA in plasma, viral dissemination) (FIV Wo isolate): the acute infection of 3 cats followed kinetics similar to those of the control cats, while infection in one of the cats appears in a retarded manner; also recorded: do not modify the course of the infection
